# Test system: male CD/Crl:CD(SD) rats
# Assay: Acute toxicity study, single peroral application, 14‐day observation
# Type: in vivo
# Conditions: for Ataxia / Chromodacryorrhea / Dyspnoea / Inhibition of body weight gain / Mean body weight gain, After 7 d / Mean body weight, After 7 d / Mortality within 6 h / Mortality within 7 h / Mortality within 14 h / Mortality within 24 h / Necropsy findings / Piloerection / Ptosis / Reduced motility / Reduced muscle tone / Mean body weight gain, End / Mean body weight, End / Mean body weight, Start: p.o., males, n = 5; for Mean body weight gain, End / Mean body weight, End: 14‐day observation; for Mean body weight, Start: before administration
# Method: In total, 90 male CD®/Crl:CD(SD) rats from Charles River Laboratories, Deutschland GmbH, were used after randomization. Five rats were selected for each concentration of the corresponding experimental substance. […] In addition, a control group was formed with five rats receiving only the HPMC gel.
# Feeding was stopped approximately 16 h before the start of test substance application, whereas tap water continued to be available ad libitum. Granulated structural wood was used as bedding material in the cages; the material was changed and the cages were cleaned twice a week. […] The rooms were illuminated (approximately 150 lux from a ceiling height of approximately 1.50 m) and darkened for 12 h in turns.
# Each animal was kept under observation, so that any behavior deviating from the norm could be systematically recorded. Observations were made before the peroral application of the respective active substance, immediately after, and 5, 15, 30, and 60 min and 3, 6, and 24 h after the start of application. […] We focused on the changes in the skin and fur, the eyes and mucous membranes, respiration, circulation, the autonomous and central nervous systems, somatomotor activity, and behavior patterns. They were also observed for possible tremors, convulsions, salivation, diarrhea, lethargy, sleep, and coma. Mortality checks were performed at least once a day to minimize the loss of animals during the study. The time of death was recorded as accurately as possible. Individual body weights were recorded before the administration of experimental substances and, subsequently, at weekly intervals, until the end of the study and at death. Weight changes were calculated when survival exceeded 1 day.
# At the end of the experiments, all surviving animals were sacrificed, dissected, and examined macroscopically. All notable pathological changes were recorded. A microscopic examination of all organs showing obvious lesions was performed on animals that survived for 24 h or longer. Autopsy and macroscopic inspection of prematurely deceased animals were performed as soon as possible after death.
smiles,measurement,setting,value
"CCCCCCCCCCCCn1ccnc1 [I‐an, 1‐imidazolyldodecane]",Ataxia,10 mg/kg b.w.,None
same,Chromodacryorrhea,10 mg/kg b.w.,None
same,Dyspnoea,10 mg/kg b.w.,None
same,Inhibition of body weight gain,10 mg/kg b.w.,None
same,"Mean body weight gain, After 7 d",10 mg/kg b.w.,+24.4%
same,"Mean body weight, After 7 d",10 mg/kg b.w.,293.2 g
same,Mortality within 6 h,10 mg/kg b.w.,0
same,Mortality within 7 h,10 mg/kg b.w.,0
same,Mortality within 14 h,10 mg/kg b.w.,0
same,Mortality within 24 h,10 mg/kg b.w.,0
same,Necropsy findings,10 mg/kg b.w.,None
same,Piloerection,10 mg/kg b.w.,None
same,Ptosis,10 mg/kg b.w.,None
same,Reduced motility,10 mg/kg b.w.,None
same,Reduced muscle tone,10 mg/kg b.w.,None
same,"Mean body weight gain, End",10 mg/kg b.w.,+39.4%
same,"Mean body weight, End",10 mg/kg b.w.,328.4 g
same,"Mean body weight, Start",10 mg/kg b.w.,235.6 g
same,Ataxia,50 mg/kg b.w.,None
same,Chromodacryorrhea,50 mg/kg b.w.,None
same,Dyspnoea,50 mg/kg b.w.,None
same,Inhibition of body weight gain,50 mg/kg b.w.,None
same,"Mean body weight gain, After 7 d",50 mg/kg b.w.,+26.6%
same,"Mean body weight, After 7 d",50 mg/kg b.w.,296.4 g
same,Mortality within 6 h,50 mg/kg b.w.,0
same,Mortality within 7 h,50 mg/kg b.w.,0
same,Mortality within 14 h,50 mg/kg b.w.,0
same,Mortality within 24 h,50 mg/kg b.w.,0
same,Necropsy findings,50 mg/kg b.w.,None
same,Piloerection,50 mg/kg b.w.,None
same,Ptosis,50 mg/kg b.w.,None
same,Reduced motility,50 mg/kg b.w.,None
same,Reduced muscle tone,50 mg/kg b.w.,None
same,"Mean body weight gain, End",50 mg/kg b.w.,+40.6%
same,"Mean body weight, End",50 mg/kg b.w.,329.2 g
same,"Mean body weight, Start",50 mg/kg b.w.,234.2 g
same,Ataxia,100 mg/kg b.w.,None
same,Chromodacryorrhea,100 mg/kg b.w.,None
same,Dyspnoea,100 mg/kg b.w.,None
same,Inhibition of body weight gain,100 mg/kg b.w.,None
same,"Mean body weight gain, After 7 d",100 mg/kg b.w.,+22.0%
same,"Mean body weight, After 7 d",100 mg/kg b.w.,283.6 g
same,Mortality within 6 h,100 mg/kg b.w.,0
same,Mortality within 7 h,100 mg/kg b.w.,0
same,Mortality within 14 h,100 mg/kg b.w.,0
same,Mortality within 24 h,100 mg/kg b.w.,0
same,Necropsy findings,100 mg/kg b.w.,None
same,Piloerection,100 mg/kg b.w.,None
same,Ptosis,100 mg/kg b.w.,None
same,Reduced motility,100 mg/kg b.w.,None
same,Reduced muscle tone,100 mg/kg b.w.,None
same,"Mean body weight gain, End",100 mg/kg b.w.,+34.2%
same,"Mean body weight, End",100 mg/kg b.w.,311.8 g
same,"Mean body weight, Start",100 mg/kg b.w.,232.4 g
same,Ataxia,250 mg/kg b.w.,None
same,Chromodacryorrhea,250 mg/kg b.w.,None
same,Dyspnoea,250 mg/kg b.w.,None
same,Inhibition of body weight gain,250 mg/kg b.w.,None
same,"Mean body weight gain, After 7 d",250 mg/kg b.w.,+19.4%
same,"Mean body weight, After 7 d",250 mg/kg b.w.,266.2 g
same,Mortality within 6 h,250 mg/kg b.w.,0
same,Mortality within 7 h,250 mg/kg b.w.,0
same,Mortality within 14 h,250 mg/kg b.w.,0
same,Mortality within 24 h,250 mg/kg b.w.,0
same,Necropsy findings,250 mg/kg b.w.,None
same,Piloerection,250 mg/kg b.w.,None
same,Ptosis,250 mg/kg b.w.,None
same,Reduced motility,250 mg/kg b.w.,None
same,Reduced muscle tone,250 mg/kg b.w.,None
same,"Mean body weight gain, End",250 mg/kg b.w.,+32.7%
same,"Mean body weight, End",250 mg/kg b.w.,296.0 g
same,"Mean body weight, Start",250 mg/kg b.w.,223.0 g
same,Toxic signs,250 mg/kg bw,None
same,Time of premature death,500 mg/kg b.w.,6 days
same,Ataxia,500 mg/kg b.w.,None
same,Chromodacryorrhea,500 mg/kg b.w.,None
same,Dyspnoea,500 mg/kg b.w.,None
same,Inhibition of body weight gain,500 mg/kg b.w.,None
same,"Mean body weight gain, After 7 d",500 mg/kg b.w.,+21.8%
same,"Mean body weight, After 7 d",500 mg/kg b.w.,288.7 g
same,Mortality within 6 h,500 mg/kg b.w.,0
same,Mortality within 7 h,500 mg/kg b.w.,2
same,Mortality within 14 h,500 mg/kg b.w.,2
same,Mortality within 24 h,500 mg/kg b.w.,0
same,Necropsy findings,500 mg/kg b.w.,None
same,Piloerection,500 mg/kg b.w.,None
same,Ptosis,500 mg/kg b.w.,None
same,Reduced motility,500 mg/kg b.w.,None
same,Reduced muscle tone,500 mg/kg b.w.,None
same,"Mean body weight gain, End",500 mg/kg b.w.,+38.4%
same,"Mean body weight, End",500 mg/kg b.w.,328.0 g
same,"Mean body weight, Start",500 mg/kg b.w.,237.0 g
same,Toxic signs,500 mg/kg bw,Mortality
same,Time of premature death,1000 mg/kg b.w.,5 days
same,Ataxia,1000 mg/kg b.w.,None
same,Chromodacryorrhea,1000 mg/kg b.w.,None
same,Dyspnoea,1000 mg/kg b.w.,None
same,Inhibition of body weight gain,1000 mg/kg b.w.,None
same,"Mean body weight gain, After 7 d",1000 mg/kg b.w.,+15.0%
same,"Mean body weight, After 7 d",1000 mg/kg b.w.,270.3 g
same,Mortality within 6 h,1000 mg/kg b.w.,0
same,Mortality within 7 h,1000 mg/kg b.w.,1
same,Mortality within 14 h,1000 mg/kg b.w.,1
same,Mortality within 24 h,1000 mg/kg b.w.,0
same,Necropsy findings,1000 mg/kg b.w.,None
same,Piloerection,1000 mg/kg b.w.,None
same,Ptosis,1000 mg/kg b.w.,None
same,Reduced motility,1000 mg/kg b.w.,None
same,Reduced muscle tone,1000 mg/kg b.w.,None
same,"Mean body weight gain, End",1000 mg/kg b.w.,+36.2%
same,"Mean body weight, End",1000 mg/kg b.w.,320.0 g
same,"Mean body weight, Start",1000 mg/kg b.w.,235.0 g
same,Toxic signs,1000 mg/kg bw,Mortality
same,Premature deaths in the acute toxicity study,"all dose groups, 30 rats per substance",three
same,Macroscopic necropsy findings,all doses,None
same,Lowest lethal dose,"rats, single p.o. dose",500 mg/kg bw
same,No Observed Adverse Effect Level,"rats, single p.o. dose",250 mg/kg bw
same,LD50(14 d),"rats, single p.o. dose, 14 days",>1000 mg/kg bw

# Reference: PMC7995547, “ω‐Imidazolyl‐alkyl derivatives as new preclinical drug candidates for treating non‐alcoholic steatohepatitis” (Physiological Reports, 2021)
